Experimental data as given in PMC3711794 (Molecular cancer therapeutics, 2012).
Non-standard residues stand in square brackets, D forms with d. Residues, ends and D or L forms follow the SMILES beside them. pT = C[C@@H](OP(=O)(O)O)[C@H](N)C(=O)O

How the values were obtained:
PLK3 PBD (335–646) = target: T1, PLK3 PBD (335–646) (Homo sapiens, UniProt Q9H4B4); test: Fluorescence polarization competitive binding assay, PLK3 PBD
T1 sequence (Q9H4B4 335-646): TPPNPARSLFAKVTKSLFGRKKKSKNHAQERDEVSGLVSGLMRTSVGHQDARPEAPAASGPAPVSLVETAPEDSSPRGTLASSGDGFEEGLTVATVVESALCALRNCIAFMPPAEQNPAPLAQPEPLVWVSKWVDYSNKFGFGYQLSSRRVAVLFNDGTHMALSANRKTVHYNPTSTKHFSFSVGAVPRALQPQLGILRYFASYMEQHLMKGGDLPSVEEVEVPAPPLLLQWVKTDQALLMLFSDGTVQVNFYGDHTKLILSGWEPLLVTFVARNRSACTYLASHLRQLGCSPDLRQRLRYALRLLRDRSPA

PLK1 = details: ref [38]; cited from earlier work
HeLa-H2B-GFP cells [1] = test: Aberrant prometaphase/metaphase analysis after QQ transfection; assay type: cell-based; details: for aberrant prometaphase/metaphase cells: controls <10%
HeLa-H2B-GFP cells [2] = test: Immunofluorescence of PLK1 centrosomal localization after QQ transfection; details: for fluorescence intensity of PLK1 staining at centrosomes: PBS control 51.2, QQ control 49.2
HeLa cells = test: Annexin V – Propidium Iodide flow cytometry cell death assay; assay type: cell-based
PBD = details: read-out: Kd for the PBD; ref [19]; cited from earlier work

CC(C)C[C@H](NC(=O)[C@@H]1CCCN1C(=O)CN)C(=O)N[C@@H](C)C(=O)N[C@H](C(=O)N[C@@H](CO)C(=O)N[C@H](C(=O)N1CCC[C@H]1C(=O)N[C@@H](CCCCN)C(=O)N[C@@H](CC(N)=O)C(=O)NCC(=O)O)[C@@H](C)OP(=O)(O)O)[C@@H](C)O [PLK3 ligand, GPLATS[pT]PKNG, reference compound] (H-GPLATS[pT]PKNG-OH)
IC50 (PLK3 PBD (335–646)): 6.5 µM

O=c1c(O)cccc2cc(O)c(O)c(O)c12 [PPG, purpurogalin, reference compound]
inhibition of PLK1 catalytic activity in vitro (PLK1): neither PPG nor Poloxin inhibit PLK1 catalytic activity | induction of aberrant mitoses in words (HeLa-H2B-GFP cells [1]; data not shown): very few aberrant mitoses

CC(C)C[C@H](NC(=O)CNC(=O)[C@H](CC(N)=O)NC(=O)[C@@H]1CCCN1C(=O)[C@@H](NC(=O)[C@H](CO)NC(=O)[C@H](CS)NC(=O)[C@H](CC(C)C)NC(=O)[C@@H](N)CC(C)C)[C@@H](C)OP(=O)(O)O)C(=O)O [compound 292, LLCS[pT]PNGL] (H-LLCS[pT]PNGL-OH)
fluorescence intensity of PLK1 staining at centrosomes (HeLa-H2B-GFP cells [2]; concentration not given): 45 arbitrary fluorescence units | induction of apoptosis in words (HeLa cells; 30 µM, relative to the controls): did not induce significant levels of apoptosis | aberrant prometaphase/metaphase cells (HeLa-H2B-GFP cells [1]; 30 µM dose): 25%

CC(=O)N1CCC[C@H]1C(=O)N[C@@H](CC(C)C)C(=O)N[C@@H](Cc1c[nH]cn1)C(=O)N[C@@H](CO)C(=O)N[C@H](C(=O)N[C@@H](C)C(=O)O)[C@@H](C)OP(=O)(O)O [compound 5743, Ac-PLHS[pT]A] (Ac-PLHS[pT]A-OH)
inhibition at 600 µM (PLK3 PBD (335–646); read-out: inhibition of PLK3 PBD binding): 31% | statistical significance of decrease in PLK1 centrosomal fluorescent intensity (HeLa-H2B-GFP cells [2]): Statistically significant decreases | fluorescence intensity of PLK1 staining at centrosomes (HeLa-H2B-GFP cells [2]; 30 μM): 33 arbitrary fluorescence units | decrease in percentage of viable cells (HeLa cells; 30 µM, 24 hours post-treatment): 30% | Apoptosis @ 24hr, 30 µM (HeLa cells; HeLa cells, QQ transfected, 24 hr): 34.0% | aberrant prometaphase/metaphase cells (HeLa-H2B-GFP cells [1]; 10 µM dose): 32% | aberrant prometaphase/metaphase cells (HeLa-H2B-GFP cells [1]; 30 µM dose): 40.3% | Aberrant mitoses, @ 24hr, 30 µM (HeLa-H2B-GFP cells [1]; HeLa-H2B-GFP cells, QQ transfected, 24 hr, 30 µM): 40.3%

LHSpTAI
Kd (PBD): 0.25 µM
